From patent EP4371976B1, “IONIZABLE LIPIDS AND LIPID NANOPARTICLES CONTAINING THEREOF” (Certest Biotec, S.L., priority 2022, dated 2024)

Assays:
[1] = RNA encapsulation efficiency of LNPs by Quant-IT Ribogreen; assay type: physicochemical; conditions: for Encaps. efficiency (%): LNPs with luciferase mRNA, ionizable lipid:non-cationic lipid:sterol:PEG-modified lipid 50:10:38.5:1.5, percentage of RNA entrapped in the LNP; for Encaps. efficiency: Table 8, LNP 50:10:38.5:1.5, luciferase mRNA
Procedure, shortened: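 Ribogreen dye assay per manufacturer quantified encapsulated mRNA. Particles were made by adding mRNA in water to the ethanol phase, then 1:1 Tris dilution and overnight dialysis into Tris/15% sucrose; final mRNA set to 100 µg/ml.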

Female BALB/c mice = experiment: Firefly luciferase expression (total flux, IVIS imaging) in mice after injection of mRNA-loaded LNPs; assay type: in vivo; conditions: for Total Flux: Table 8, mice, intramuscular, 5 µg luciferase mRNA in 50 µl, LNP 50:10:38.5:1.5; for protein expression in mice (transfection results): Figure 1 legend, LNPs containing RNA
Procedure: For in vivo administration, mRNA comprising in the 5' to 3' direction a sequence encoding for luciferase of SEQ ID NO:1, was encapsulated into LNPs following the procedure described in Hassett, K. J. et al., "Optimization of Lipid Nanoparticles for Intramuscular Administration of mRNA Vaccines", 2019, Mol. Ther. Nucleic Acid, vol. 15, pp. 1-11. Briefly, the purified mRNAs were first diluted in sodium citrate buffer at pH=4 at a final concentration of 266 µg/ml. Separately, a mixture of the ionizable lipid of the invention:DSPC (Merk 850365P):cholesterol (Sigma C3045):DMG-PEG2000 (Cayman 33945-1) were dissolved into ethanol at the respective molar percentages of 50:10:38.5:1.5, and with a lipid-nitrogen-to-phosphate ratio (N:P) ratio of 5,5:1.
The mRNA aqueous solution was then carefully added to the ethanol solution, and the resulted solution was homogenized by pipetting up and down for 4-5 times. The resulting LNPs were immediately diluted 1:1 with Tris buffer and dialyzed overnight against Tris buffer containing 15% sucrose. The resulting LNP solution was then collected, and the encapsulated mRNA was assessed by Quant-IT® Ribogreen (Invitrogen R11490) following the manufacturer's instructions.
Female BALB/c mice (Charles River Laboratories), 8-10-week-old, weighting 18-23 g, were acclimatized to new conditions upon arrival to experimental facilities for 3-7 days. Housing conditions were room temperature 20-24 °C, humidity 50-70 %, and light intensity 60 lux with a light-dark cycle of 12 hours.
For Firefly Luciferase activity measurement in mice, LNPs produced as indicated above (ionizable lipid:helper lipid: sterol:PEG-modified lipid → 50:10:38.5:1.5) and containing 5 µg of the indicated mRNA in 50 µl final volume, were injected intramuscularly.
From 4 to 72 hours after RNA-LPN inoculation mice were anaesthetized by inhalation with 4% of isoflurane using a vaporizer. The maintenance of the anaesthesia was performed at 1.5% of isoflurane. Then, D-luciferin (Quimigen, 12507) was injected intraperitoneally at 150 mg/kg, normally ~200 µL of the stock at 15 mg/mL in PBS for a 20 g mouse. Luciferase images were acquired 10 minutes after luciferin inoculation using the IVIS Lumina XRMS Imaging System following manufacturer's instructions.

[2] = Size distribution, polydispersity and Z-potential of LNPs by dynamic light scattering (Malvern Zetasizer); assay type: physicochemical; conditions: LNPs, standard formulation 50:10:38.5:1.5; DLS
Procedure: The LNP solution was then adjusted to a final concentration of mRNA of 100 µg/ml. Size distribution, polydispersity and Z-potential were measured by dynamic light scattering (DLS) using Malvern Zetasizer Advance Lab Blue Label. RNA encapsulation was assessed by Quant-IT® Ribogreen following the manufacturer's instructions.

Row | Structure (SMILES) | Encaps. efficiency (%) [1] | Encaps. efficiency [1] | Total Flux (Female BALB/c mice) | P.D.I. [2] | Particle size/ Ø (nm) [2] | Z Potential (± D.E.) [mV] [2] | protein expression in mice (transfection results) (Female BALB/c mice)
1 | CCCCCCCCCCCCCOC(=O)CCSCCC(C(=O)NCCCn1ccnc1)C(=O)OC(CCCCCCCC)CCCCCCCC (stereo not shown) [VC-LC-0362] | 73.55% | 73.5% | 3.31E+07 p·s^-1 | 0.14 | 121.1 nm | -13.94 mV | 
2 | CCCCCCCCCCCCCCOC(=O)CCSCCC(C(=O)NCCCn1ccnc1)C(=O)OC(CCCCCCCC)CCCCCCCC (stereo not shown) [VC-LC-0367] | 47.47% | 47.5% | 3.16E+07 p·s^-1 | 0.19 | 134.6 nm | -15.48 mV | 
3 | CCCCCCCCCCCCCCCCCC(=O)NC(CCSCCC(=O)OCCCCCCCCCCCCC)C(=O)NCCCN1CCOCC1 (stereo not shown) [VC-LC-0374] | 70.37% |  |  | 0.16 | 174.7 nm | -9.62 mV | good transfection results
4 | CCCCCCCCCCCCCCCCCC(=O)NC(CCSCCC(=O)OCC(CCCCCCCCCC)CCCCCCCCCCCC)C(=O)NCCCN1CCOCC1 (stereo not shown) [VC-LC-0389] | 76.40% |  |  | 0.26 | 218 nm | -9.68 mV | good transfection results
5 | CCCCCCCCC(CCCCCC)COC(=O)CCSCCC(C(=O)NC1CCN(C)CC1)C(=O)OC(CCCCCCCC)CCCCCCCC (stereo not shown) [VC-LC-0439] | 91.14% | 91.1% | 2.39E+07 p·s^-1 | 0.1 | 144.8 nm | -6.48 mV | 
6 | CCCCCCCCCCCCCOC(=O)CCSCCC(C(=O)NC1CCN(C)CC1)C(=O)OC(CCCCCCCC)CCCCCCCC (stereo not shown) [VC-LC-0441] | 78.30% | 78.3% | 2.2E+07 p·s^-1 | 0.12 | 186.5 nm | -4.04 mV | 
7 | CCCCCCCC#CCOC(=O)CCSCCC(C(=O)NC1CCN(C)CC1)C(=O)OC(CCCCCCCC)CCCCCCCC (stereo not shown) [VC-LC-0442] | 87.80% | 87.8% | 2.95E+07 p·s^-1 | 0.12 | 171.8 nm | -4.19 mV | 
8 | CCCCCCCCCCCCC(CCCCCCCCCC)COC(=O)CCSCCC(NC(=O)C(CCCCCC)CCCCCCCC)C(=O)NCCN(CC)CC (stereo not shown) [VC-LC-0487] | 62.43% | 62.43% | 6.9E+07 p·s^-1 | 0.17 | 156.3 nm | -9.59 mV | 
9 | CCCCCCCCCCCCCOC(=O)CCSCCC(NC(=O)C(CCCCCC)CCCCCCCC)C(=O)NCC1CCN(C)CC1 (stereo not shown) [VC-LC-0490] | 97.16% | 97.2% | 1.7E+07 p·s^-1 | 0.18 | 136.1 nm | 0.83 mV | 
10 | CCCCCCCCCCCCCOC(=O)CCSCCC(NC(=O)C(CCCCCCCC)CCCCCCCCCC)C(=O)NCC1CCN(C)CC1 (stereo not shown) [VC-LC-0507] | 95.15% | 95.2% | 2.29E+07 p·s^-1 | 0.13 | 151.1 nm | -2.76 mV | 
11 | CCCCCCCCCCCCC(CCCCCCCCCC)COC(=O)CCSCCC(NC(=O)C(CCCCCCCC)CCCCCCCCCC)C(=O)NCC1CCN(C)CC1 (stereo not shown) [VC-LC-0521] | 52.01% | 52.01% | 1.1E+08 p·s^-1 | 0.071 | 153.1 nm | -4.50 mV | 
